# Source: a melting point compilation (Tetko et al.; mined from patent text by program, amines drawn as free bases though some values may be those of a salt)
row,Compound,melting point
1,CC(C)[C@@H]1CC[C@@H](C)C[C@H]1C(=O)Nc1ccc(CC#N)cc1,146 to 150 °C
2,CCOC(=O)c1cn(CCC(C)C)c2nn(C)cc2c1=O,105 to 106 °C
3,COc1cnc(Cl)n2nc(N)nc12,251 °C
4,CCOC(=O)Cc1ccc(OCCCCl)c(OC)c1,36 to 38 °C
5,CCCNC(=O)NCCCCN1CCC(CNC(=O)c2cc(Cl)c(N)cc2OC)CC1,114 to 115 °C
6,CC[C@H](C)[C@H](NS(=O)(=O)c1ccc(C)cc1)C(=O)N[C@H](CO)Cc1c[nH]c2ccccc12,217 to 219 °C
7,CC(O)c1cc2cc(OCC(=O)O)c(Cl)c(Cl)c2s1 (stereo not drawn),173 to 175 °C
8,CC(=O)N1[C@@H](c2ccc(Cl)cc2)SC(C)(C)[C@@H]1C(=O)O,197 to 198 °C
9,NC(=S)c1sccc1N,98 to 99 °C
10,O=[N+]([O-])c1ccc(OCCc2c[nH]cn2)cc1,197 to 200 °C
11,COc1cccc2ocnc12,72 to 74 °C
12,O=[N+]([O-])c1cccc(S(=O)(=O)NC(CO)(CO)CO)c1,98 to 99 °C
13,CCC(CC)c1nn(-c2ccc(C(F)(F)F)cn2)cc1CCCO,79 to 80 °C
14,CCCCCCc1cc2c(s1)-n1c(C)nnc1CN=C2c1cccc(C)c1,57 to 59 °C
15,CS(=O)(=O)Nc1ccc2ncnc(N)c2c1,287 to 290 °C
16,COCCOC(=O)C1=C(C)NC(C)=C(C(=O)OCCOC)C1c1ccccc1OC(F)F,94 to 95 °C
17,CCCCCCCCN(O)C(=O)N(C)C,29 to 30 °C
18,CCOC(=O)C=Cc1ccc(C(=O)O)cc1,196 to 197 °C
19,CCCCCn1c2ccccc2c2cc(C(=O)N3CCCCC3)ncc21,126 to 127 °C
20,CCCC[C@H](NC(=O)[C@H](CC(=O)O)NC(=O)Nc1ccc([N+](=O)[O-])cc1)C(=O)OC,204 to 205 °C

row,Compound,melting point
1,Cc1c(S(=O)(=O)C(F)(F)F)cnn1-c1c(Cl)cc(C(F)(F)F)cc1Cl,83 to 85 °C
2,O=C(Cl)CCCCCCCBr,110 to 112 °C
3,COc1cc(Cl)c2nc(NN)nc(N)c2c1OC,168 to 169 °C
4,N#C[C@@H]1C[C@H](F)CN1C(=O)CCl,97 to 100 °C
5,CCC(=O)C(=Cc1cc(O)c(O)c([N+](=O)[O-])c1)C(=O)CC,133 to 135 °C
6,N#Cc1c[nH]cc1-c1cccc(C(F)(F)F)c1Cl,82 °C
7,CCC1Oc2cc(C(=O)OC)ccc2NC1=O (stereo not drawn),132 to 134 °C
8,C=CC(=O)Nc1ccc(C(=O)C[N+](=O)[O-])c(Cl)c1,140 to 144 °C
9,CC(C)C(NC(=O)c1ccc(C(=O)NCC(=O)O)cc1)C(=O)N(CC(=O)NC(C(=O)C(F)(F)F)C(C)C)C1Cc2ccccc2C1 (mixture of isomers),88 to 91 °C
10,N#Cc1ccc(NC(=O)c2ccc(C=O)cc2)cc1,236 °C
11,CCNC(C)c1nc(CSCCNC(=C[N+](=O)[O-])NC)cs1 (stereo not drawn),114 to 116 °C
12,CCCCN(CCCC)Cc1nc(-c2ncn3c2[C@@H]2CCN2C(=O)c2c(Cl)cccc2-3)no1,120 to 125 °C
13,O=P(CN(O)Cc1ccccc1)(OCc1ccccc1)OCc1ccccc1,62 to 64 °C
14,O=C(O)CC12CC3CC(CC(Cl)(C3)C1)C2,182 to 184 °C
15,CC(C)(C)OC(=O)N1CCC[C@@H](O)[C@H](C(=O)O)C1,98.5 to 102 °C
16,CC1(C)CC(NC(=O)c2ccccc2)CC(C)(C)N1CC#N,182 °C
17,CCCCCCCCCCCCCCCCCCC(CC1(C)OCCO1)C(=O)OCC (stereo not drawn),33 to 34 °C
18,Nc1nc(Cl)c2[nH]c(=O)n(CCCCO)c2n1,222 to 225 °C
19,CCOc1ccc(Nc2ccc(Nc3ccc(OCC)cc3)c3c2C(=O)c2c(Nc4ccc(OCC)cc4)ccc(Nc4ccc(OCC)cc4)c2C3=O)cc1,173 to 175 °C
20,CCCn1nc(C)c(NC(C)=O)c1C#N,129 to 131 °C

# Now from value to molecule:
row,melting point,Compound
1,167 °C,OCc1ccc(-c2ccccc2-c2nnnn2C(c2ccccc2)(c2ccccc2)c2ccccc2)cc1
2,238 °C,N#Cc1c(N2CCN(C(=O)c3cccs3)CC2)c2cscc2n(Cc2ccc(F)cc2)c1=O
3,130 °C,O=C(Nc1ccccc1)O[C@@H]1CN=C(c2ccoc2)O[C@H]1c1ccccc1 (racemic)
4,199 to 200 °C,COc1ccc(S(=O)(=O)Nc2ccccc2NC(=O)c2cnccc2C)cc1
5,> 300 °C,N#Cc1c[nH]c2cc(-c3ccccc3)sc2c1=O
6,155 to 158 °C,COc1ccc(S(=O)(=O)n2ccc3ccnc(N(C)C)c32)cc1
7,215 to 218 °C,CC(C)c1ccc(S(=O)(=O)c2ccccc2)cc1S(=O)(=O)NC1CCN(C(=O)c2cccc(F)c2)CC1
8,128 to 130 °C,CC(C)(C)N1C[C@H](O)C[C@H]1C(=O)NC(=O)OCc1ccccc1
9,126 to 131 °C,C[C@@H]1Cc2ccsc2[C@H](C)N1CCNS(=O)(=O)c1ccc(N)cc1 (relative stereo)
10,130 to 132 °C,CCN1c2ncccc2C(=O)N(C)c2cccnc21
11,155 to 200 °C,ON=C(c1ccncc1)c1ccc(F)cc1F
12,119 to 124 °C,N#CCc1cc(Br)cc(Cc2nc3c(F)c(F)cc(F)c3s2)c1
13,202 to 204 °C,COc1cccc2c1C[C@H]1C[C@@H](CN3CCC(O)(c4ccc(Cl)cc4)CC3)CN(C)[C@@H]1C2
14,224 to 226 °C,Cc1cccc2c1C(=O)NS2(=O)=O
15,163 °C,Cc1ccn2c(-c3ccnc(-c4ccc(OCCN5CCCC5)cc4)c3)c(-c3cccc(C)n3)nc2c1
16,> 320 °C,O=c1[nH]c2sc3ccc(Br)cc3c2[nH]c1=O
17,166 to 168 °C,O=C1CCCCN1C1=CC(CF)(CF)Oc2ccc(C(F)(F)F)cc21
18,239 to 240 °C,CCOC(=O)C1=CNC2=C(C(=O)CCC2)C1c1nccs1 (stereo not drawn)
19,60 °C,CCCCCCCCCCCCNC(=S)C1(c2ccccn2)CCCS1 (stereo not drawn)
20,115 to 130 °C,CCOC(=O)CCCn1nnnc1-c1ccc2c(c1)[C@@H](Nc1ccnc(SC)n1)[C@](C)(O)C(C)(C)O2

row,melting point,Compound
1,153 to 154 °C,CC(C)CN1C(=O)C(CC(=O)O)OC(C)(c2ccccc2Cl)c2cc(Cl)ccc21 (stereo not drawn)
2,223 to 225 °C,O=C1c2ccccc2C(=O)N1CCCCC1N=NC(=S)N1 (stereo not drawn)
3,233 °C,FC(F)(F)COc1cc(-c2cc(C(F)(F)F)n3cnc(-c4ccncc4)c3n2)ccc1C(F)(F)F
4,117 to 119 °C,CCN(CC)c1ccc(-c2cc3ccccc3o2)cc1
5,175 to 177 °C,Cc1cc(-n2ccc(OCc3ccccc3)cc2=O)sc1C(=O)NCc1ccc(F)cc1
6,155 to 156 °C,COc1ccc(-c2coc3ccc(-c4nnc(SCc5cccc(Cl)c5)o4)cc23)cc1
7,221 to 223 °C,COc1cc(Nc2c(C#N)cnc3cc(C#Cc4ccncc4)sc23)c(Cl)cc1Cl
8,97 to 99 °C,CCOC(=O)C(=CNc1ccc(F)cc1F)C(=O)c1c(F)c(F)c(F)c(F)c1F
9,210 °C,CCOC(=O)C1=C(C)Nc2nc(N(C)C)nc(N)c2C1c1ccccc1C(F)(F)F (stereo not drawn)
10,212 to 214 °C,COc1cc(OC(=O)c2cccnc2)c2c(=O)c(OC)c(-c3ccc(OC(=O)c4cccnc4)c(OC)c3)oc2c1
11,213 to 214 °C,O=C(Cc1ccncc1)NC(Cc1c[nH]c2ccccc12)C(O)CCc1cc(C(F)(F)F)cc(C(F)(F)F)c1 (stereo not drawn)
12,184 to 186 °C,CC(=O)Nc1ccc(S(=O)(=O)N[C@H]2COCOC[C@H]2OC(C)=O)cc1 (relative stereo)
13,196 to 198 °C,CC(=O)CN1CCc2c(c(=O)oc3cc(C)c(N)cc23)C1
14,80 to 82 °C,CCOC(=O)Cc1cc(Cl)cc(C(=O)c2ccccc2)c1N
15,135 to 136 °C,Cc1cc(C)n(C(=O)CNS(=O)(=O)c2ccc(Cl)cc2)n1
16,158 to 161 °C,CCCCn1c(C)nc(N2CCc3ccccc3CC2)c([N+](=O)[O-])c1=O
17,231 to 234 °C,CNc1nc(-c2cc(F)cc(F)c2)nc2nc(-c3ccco3)nn12
18,234 to 236 °C,COc1cc(OS(=O)(=O)OC(F)(F)F)c2c(=O)c3ccc(Cl)cc3n(C)c2c1
19,148 to 149 °C,O=C(ON=C1C(=O)c2ccccc2-c2ccccc21)c1ccccc1
20,137 °C,Cc1cccc(NCC2=NCCN2C(=O)Nc2ccccc2)c1C

row,melting point,Compound
1,228 to 234 °C,ON=c1cc(-c2cc3sccc3cn2)oc2ccc(OCCc3ccc(F)cc3)cc12
2,231 to 236 °C,CCNC1CN(c2cc3c(cc2F)c(=O)c2c(=O)[nH]sc2n3C2CC2)C1
3,291 °C,N#Cc1c(N)nc2ccc(N3CCOCC3)cc2c1O
4,204 °C,COc1ccc(-c2cc(=O)c3c(OCC(O)CO)cc(OCC(O)CO)cc3o2)cc1O (stereo not drawn)
5,163 to 165 °C,OCc1nc2cccnc2n1Cc1ccc(-c2ccccc2)cc1
6,110 to 112 °C,CC(C)C[C@H](NS(=O)(=O)c1cccnc1)C(=O)N[C@@H](C(C)C)[C@@H](O)c1c(-c2ccccc2)c1=O
7,93 to 95 °C,C/C(=C\c1ccc(C(F)(F)F)cc1)[C@H]1OC[C@H](SCc2ccc(Cl)cc2)CO1
8,259 to 260 °C,O=C1CCCc2c(-c3ccncc3)[nH]c(-c3ccccc3)c21
9,113 to 114 °C,CC(=O)ON(CCOc1ccc2c(c1)CCN(CCCc1ccc(F)cc1)C2=O)C(N)=O
10,266 to 268 °C,Cc1cc(Cl)ccc1N1CCCNC1=S
11,148 to 150 °C,COC(=O)CN(C1c2cc(Cl)ccc2OC(C)(C)C1O)S(C)(=O)=O (stereo not drawn)
12,169 to 171 °C,Cc1cccc(C)c1N(CCCc1cccnc1)C(=O)CC(C)N1C(=O)c2ccccc2C1=O (stereo not drawn)
13,302 °C,C#CC(=O)N1CCN(C(=O)OC2C3=C(OCCS3)C(=O)N2c2ccc3ccc(Cl)nc3n2)CC1 (stereo not drawn)
14,188 to 190 °C,O=C1COc2cc(F)c(N3C(=O)C4=C(CCCC4)C3=O)cc2N1Cc1ccccn1
15,147 to 149 °C,CCN1C(=O)C(C)(C)C(=O)N(C)c2cc(CN(CCn3ccc4oc(C)cc4c3=O)Cc3cccnc3C=O)ccc21
16,263 to 265 °C,O=C1CCC(N2Cc3c(OCc4ccc(CN5CCOCC5)c(F)c4)cccc3C2=O)C(=O)N1 (stereo not drawn)
17,114 to 115 °C,COc1ccc2c(c1)c(-c1ccccc1)nc(=O)n2CC1CC1
18,90 to 92 °C,O=C(O)CC(Sc1ccc(Cl)cc1)c1ccccc1 (stereo not drawn)
